Data from ChEMBL document CHEMBL5356942, “MEK inhibitors in cancer treatment: structural insights, regulation, recent advances and future perspectives” (RSC Med Chem, 2023).
Blank lines part the entries; values can stand above or below the compound they belong to.

Columns and labels:
A-375 = assay: Antiproliferative activity against human A375 cells assessed as reduction in cell growth incubated for 24 hrs by MTT assay; assay type: functional, cell-based; settings: A-375, 24 h
Calu-6 = assay: Antiproliferative activity against human Calu-6 cells assessed as reduction in cell growth incubated for 24 hrs by MTT assay; assay type: functional, cell-based; settings: Calu-6, 24 h
A-431 = assay: Antiproliferative activity against human A-431 cells assessed as reduction in cell proliferation incubated for 24 hrs by MTT assay; assay type: functional, cell-based; settings: A-431, 24 h
HT-29 [1] = assay: Antiproliferative activity against human HT-29 cells assessed as reduction in cell growth incubated for 24 hrs by MTT assay; assay type: functional, cell-based; settings: HT-29, 24 h
COLO 205 = assay: Antiproliferative activity against human COLO 205 cells assessed as reduction in cell proliferation incubated for 24 hrs byMTS assay; assay type: functional, cell-based; settings: COLO 205, 24 h
HeLa = assay: Cytotoxicity against human HeLa cells assessed as reduction in cell viability incubated for 72 hrs by MTT assay; assay type: functional, cell-based
[2] = Cytotoxicity against human QSG7701 cells assessed as inhibition of cell growth incubated for 72 hrs by MTT assay; assay type: functional, cell-based; settings: QSG7701, 72 h
SMMC-7721 [3] = assay: Cytotoxicity against human SMMC-7721 cells assessed as reduction in cell viability incubated for 72 hrs by MTT assay; assay type: functional, cell-based; settings: SMMC-7721, 72 h
MDA-MB-231 = assay: Cytotoxicity against human MDA-MB-231 cells assessed as reduction in cell viability incubated for 72 hrs by MTT assay; assay type: functional, cell-based; settings: MDA-MB-231, 72 h
Enterovirus A71 [4] = assay: Antiviral activity against human Enterovirus 71 BrCr infected in human RD cells assessed as reduction of virus induced cytopathic effect incubated for 48 hrs by MTS assay; assay type: functional, organism-based; settings: Enterovirus A
[5] = Therapeutic index, ratio of CC50 for HEK293 cells to EC50 for antiviral activity against human EV71 infected in HEK293 cells; assay type: functional
HEK293 = assay: Cytotoxicity against HEK293 cells assessed as reduction in cell viability measured after 66 hrs by MTT assay; assay type: functional; settings: Homo sapiens
RD = assay: Cytotoxicity against human RD cells assessed as reduction in cell viability incubated for 72 hrs by MTT assay; assay type: functional
Enterovirus A71 [6] = assay: Antiviral activity against human EV71 infected in HEK293 cells assessed as reduction in viral replication at MOI of 1 incubated for 48 hrs by luciferase assay; assay type: functional, organism-based; settings: Enterovirus A, HEK293, 48 h
[7] = Therapeutic index, ratio of CC50 for RD cells to EC50 for antiviral activity against human EV71 infected in RD cells; assay type: functional
[8] = Inhibition of ERK phosphorylation in human A-431 cells at 1 to 10 uM incubated for 24 hrs by Western blot analysis; assay type: cell-based; settings: A-431, 24 h
[9] = Cytotoxicity against human QSG7701 cells assessed as inhibition of cell growth incubated for 48 hrs by MTT assay; assay type: functional, cell-based; settings: QSG7701, 48 h
SMMC-7721 [10] = assay: Cytotoxicity against human SMMC-7721 cells assessed as reduction in cell growth incubated for 48 hrs by MTT assay; assay type: functional, cell-based; settings: SMMC-7721, 48 h
Hep 3B2 = assay: Cytotoxicity against human Hep3B cells assessed as reduction in cell viability incubated for 48 hrs by MTT assay; assay type: functional, cell-based
[11] = target: Mitogen-activated protein kinase 1 (Homo sapiens, UniProt P28482); assay: Inhibition of ERK2 phosphorylation in human A375 cells
MCF7 = assay: Cytotoxicity against human MCF7 cells assessed as reduction in cell viability incubated for 24 hrs by MTT assay; assay type: functional, cell-based; settings: MCF7, 24 h
HT-29 [12] = assay: Cytotoxicity against human HT-29 cells assessed as reduction in cell viability incubated for 24 hrs in dark by MTT assay; assay type: functional, cell-based; settings: HT-29, 24 h
B16 = assay: Cytotoxicity against mouse B16 cells assessed as reduction in cell viability incubated for 24 hrs by MTT assay; assay type: functional, cell-based; settings: B16, 24 h
[13] = Oral bioavailability in ICR mouse at 3 mg/kg measured after 24 hrs by LC-MS/MS analysis; assay type: ADME, organism-based; settings: in vivo
[14] = AUC (0 to t) in ICR mouse at 3 mg/kg, po administered via gavage measured after 24 hrs by LC-MS/MS analysis; assay type: ADME, organism-based; set-up: time 24 hrs, dose 3 mg/kg, route po; settings: in vivo

Mitogen-activated protein kinase 1, sequence (P28482 whole entry): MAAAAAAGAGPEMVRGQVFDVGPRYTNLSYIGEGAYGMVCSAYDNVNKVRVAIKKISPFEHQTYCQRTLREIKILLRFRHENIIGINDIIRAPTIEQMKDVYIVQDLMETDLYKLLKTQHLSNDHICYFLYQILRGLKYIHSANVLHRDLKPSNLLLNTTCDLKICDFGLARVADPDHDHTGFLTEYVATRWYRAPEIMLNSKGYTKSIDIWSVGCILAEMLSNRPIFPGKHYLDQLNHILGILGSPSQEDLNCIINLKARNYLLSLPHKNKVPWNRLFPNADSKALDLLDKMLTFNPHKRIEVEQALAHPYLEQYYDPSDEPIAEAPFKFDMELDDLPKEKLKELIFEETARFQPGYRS

EC50 [8]: 0.19 nM
SMILES: Cn1c(=O)c(F)c(Nc2ccc(I)cc2F)c2c(=O)n(C[C@@H](O)CO)cnc21 [TAK-733]

IC50 [11]: 18 nM
SMILES: CC(=O)COC[C@H](O)CONC(=O)c1ccc(F)c(F)c1Nc1ccc(F)cc1F

bioavailability [13]: 28%
AUCt [14]: 337 ng·h/mL
SMILES: Cc1cc(I)ccc1Nc1c(C(=O)NOCCO)cc2ocnc2c1F

More lines, now with the values behind:

SMILES: O=C(NOCCO)c1cc2ocnc2c(F)c1Nc1ccc(F)cc1F
IC50 (A-375): 4.3 nM
IC50 (Calu-6): 169 nM
IC50 (A-431): > 3000 nM
IC50 (HT-29 [1]): 2.9 nM
IC50 (COLO 205): 5.7 nM

SMILES: CC(=O)NNC(=O)[C@]12CC[C@@H](C)[C@H](C)C1C1=CCC3[C@@]4(C)Cc5cc6cc(Cl)ccc6cc5C(C)(C)C4CC[C@@]3(C)[C@]1(C)CC2 (stereo not given in full)
IC50 (HeLa): 80 nM
IC50 [2]: 10.8 µM
IC50 (SMMC-7721 [3]): 340 nM
IC50 (MDA-MB-231): 120 nM

SMILES: CCc1c(Cc2ccc(F)cc2)c(=O)oc2cc(OC(=O)N(C)C)ccc12
EC50 (Enterovirus A71 [4]): 10 µM
Ratio CC50/EC50 [5]: 3.37
CC50 (HEK293): 65.3 µM
CC50 (RD): 72.9 µM
EC50 (Enterovirus A71 [6]): 19.4 µM
Ratio CC50/EC50 [7]: 7.29

SMILES: CCOc1ccc2c(c1)c1c(n2CCN2CCNCC2)-c2cc(C(C)C)ccc2[C@@]2(C)CCC[C@@](C)(C(=O)OC)C12 (stereo not given in full)
IC50 [9]: 12.5 µM
IC50 (SMMC-7721 [10]): 1390 nM
IC50 (Hep 3B2): 730 nM

SMILES: N#Cc1c(-c2ccccc2Br)c(N2CCOCC2)n(-c2ccc(Cl)cc2Cl)c1N
IC50 (MCF7): 1350 nM
IC50 (HT-29 [12]): 1470 nM
IC50 (B16): 4.61 µM
